Eleven compounds from patent US10787425B2, “Thiazolidinedione derivative and use thereof” (INDUSTRY-ACADEMIC COOPERATION FOUNDATION CHOSUN UNIVERSITY, priority 2016, dated 2020) can be followed below.

One assay addresses 15-PGDH (Homo sapiens (Human), UniProt P15428). Kind of assay: 15-PGDH inhibitory activity (NADH at 340 nm). Type of assay: biochemical. The conditions noted are these: concentration inhibiting 50% of 15-PGDH activity; purified 15-PGDH, 21 μM PGE2, 0.25 mM NAD+. The method, boiled down:
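GST-purified human 15-PGDH (E. coli BL-21 LysS, 10 μg) with 21 μM PGE2 and 0.25 mM NAD+ in 50 mM Tris-HCl pH 7.5, 0.1 mM DTT. Compound tested at 0.0001–64 μM; NADH formation read by absorbance at 340 nm against a standard curve.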

For the next assay, the system named is A549 cells. Kind of assay: Measurement of PGE2 concentration in A549 cell medium (ELISA). Particulars: for Increment %: PGE2 concentration versus PBS control, 5 μM, 12 hours; for PGE2 concentration: inhibitor 5 μM, medium collected after 12 hours, ELISA. Type of assay: cell-based, human. In outline:
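A549 cells in RPMI 1640 with 8% FBS, seeded at 5×10^5 cells/well and grown 24 h at 37° C, 5% CO2; at ~80% confluence treated with 15-PGDH inhibitor at 5 μM in PBS (PBS-only negative control). After 12 h, PGE2 in the medium was measured by ELISA against a standard curve.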

The test system of a further assay is HaCaT cells. Description: Wound treatment (scratch) assay in HaCaT cells. Type of assay: cell-based, human. Particulars: 48 hours. The method, then: HaCaT cells subcultured for about one week in DMEM [containing+8% FBS, AA] medium were inoculated in a 6-well plate at 2×10^5 cells/mL ([…]). Then, the cells were cultured for about 24 hours until the cells reached 80% confluency. HaCaT cells are an adult human skin-derived and spontaneously […] aneuploid immortal keratinocyte cell line. After the culture, the cells were washed with 1×PBS buffer and the used medium was replaced with an FBS and antibiotic-free medium. Then, mitomycin was added thereto at a concentration of 30 μg/mL and the cells were cultured for 2 hours. Then, the cells were washed with 1×PBS buffer, and a cell monolayer on the bottom surface of each well was scratched by using a 200 μL pipette tip to harm the cells. Since some cells were washed away by the scratching, the plate was washed repeatedly with 1×PBS buffer and then, filled with DMEM medium containing FBS and AA, and photographed at the time of 0 hour.
The 15-PGDH inhibitor was then injected at a concentration of 5 μM or the indicated concentration. For comparison with the results, in the case of the negative control, nothing was added, and in the case of the positive control, TGF-β1 was injected at a concentration of 1 ng/mL and then, the cells were cultured for 48 hours. After 48 hours, the picture of the cells was taken again to confirm how much the cells were grown due to the drug effect.

The mark [1] stands for this setting: 5 μM, versus control (FIGS. 1 to 3).
[2] abbreviates: 0.5 μM to 5 μM, versus control (FIGS. 4 to 6).

Sequence of 15-PGDH (P15428 whole entry): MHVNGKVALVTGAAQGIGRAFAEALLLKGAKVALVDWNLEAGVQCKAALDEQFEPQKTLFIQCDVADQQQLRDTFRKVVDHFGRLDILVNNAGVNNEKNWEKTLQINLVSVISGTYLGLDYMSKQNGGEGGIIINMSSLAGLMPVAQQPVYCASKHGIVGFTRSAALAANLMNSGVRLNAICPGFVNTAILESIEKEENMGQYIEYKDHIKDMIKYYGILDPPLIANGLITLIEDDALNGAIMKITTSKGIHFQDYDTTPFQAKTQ

As a reminder, the IC50 is the concentration that inhibits the measured activity by half. A higher IC50 goes with lower potency. In turn, `O=C1NC(=O)/C(=C/c2ccc(OC(=O)C3CC3)c(Cl)c2)S1` [Compound 1, (Z)-2-chloro-4-((2,4-dioxothiazolidin-5-ylidene)methyl)phenyl cyclopropanecarboxylate] yielded an IC50 at 15-PGDH of 2090 nM. For the same compound, in the assay with A549 cells, the Increment % was 3.47% and the PGE2 concentration was 283.2688 pg/mL. Besides, the wound closure rate entry in the assay with HaCaT cells (setting [1]) was “significantly higher wound closure rates than the control”.

`O=C(CCCc1ccccc1)Oc1ccc(/C=C2\SC(=O)NC2=O)cc1Cl` [Compound 14, (Z)-2-chloro-4-((2,4-dioxothiazolidin-5-ylidene)methyl)phenyl 4-phenylbutanoate] returned an IC50 on 15-PGDH of 22 nM. In the assay with A549 cells, the Increment % worked out at 389.99% and the PGE2 concentration is 586.3975 pg/mL. In addition, in the assay with HaCaT cells (setting [1]), the wound closure rate result was “significantly higher wound closure rates than the control”.

Compound `CCOc1cc(/C=C2\SC(=O)NC2=O)ccc1OC(=O)CCCc1ccccc1` [Compound 59, (Z)-4-((2,4-dioxothiazolidin-5-ylidene)methyl)-2-ethoxyphenyl 4-phenylbutanoate] came in with a 50% inhibitory concentration (IC50) on 15-PGDH of 43.9 nM. In addition, the Increment % in the assay with A549 cells was 579.34%. Further, in the assay with A549 cells, the PGE2 concentration was 1081.055 pg/mL. Moreover, the results for the wound closure rate result in the assay on HaCaT cells (setting [2]) and with HaCaT cells (setting [1]) were “significantly high wound closure rate” and “significantly higher wound closure rates than the control”, respectively.

For `O=C(CCCc1ccccc1)Oc1cccc(/C=C2\SC(=O)NC2=O)c1Cl` [Compound 89, (Z)-2-chloro-3-((2,4-dioxothiazolidin-5-ylidene)methyl)phenyl 4-phenylbutanoate], at 15-PGDH, half-maximal inhibition (IC50) required 25.1 nM. In the assay with A549 cells, the Increment % is given as 398.2% and the PGE2 concentration was determined as 1048.274 pg/mL. Also, the wound closure rate result with HaCaT cells (setting [2]) was “significantly high wound closure rate”. The wound closure rate entry in the assay on HaCaT cells (setting [1]) is “significantly higher wound closure rates than the control”.

The compound `O=C(CC1CCCCC1)Oc1ccc(/C=C2\SC(=O)NC2=O)c(Cl)c1` [Compound 97, (Z)-3-chloro-4-((2,4-dioxothiazolidin-5-ylidene)methyl)phenyl 2-cyclohexylacetate] had an IC50 against 15-PGDH of 27.7 nM. In addition, in the assay with A549 cells, the Increment % turned out to be 8.1011% and the PGE2 concentration was determined as 120.703 pg/mL.

On 15-PGDH, `O=C(CCCCC1CCCCC1)Oc1ccc(/C=C2\SC(=O)NC2=O)c(Cl)c1` [Compound 100, (Z)-3-chloro-4-((2,4-dioxothiazolidin-5-ylidene)methyl)phenyl 5-cyclohexylpentanoate] had an IC50 of 39.4 nM. Besides, in the assay with A549 cells, the Increment % was −3.7411% and the PGE2 concentration was found to be 107.4803 pg/mL.

Compound `O=C(O)c1ccccc1.O=C1NC(=O)/C(=C/c2ccc(OC(=O)c3ccccc3)cc2Cl)S1` [Compound 101, (Z)-3-chloro-4-((2,4-dioxothiazolidin-5-ylidene)methyl)phenyl benzoate] came in with an IC50 at 15-PGDH of 45.1 nM. Besides, in the assay with A549 cells, the Increment % came out at 79.4871% and the PGE2 concentration turned out to be 200.4108 pg/mL.

`O=C(Cc1ccccc1)Oc1ccc(/C=C2\SC(=O)NC2=O)c(Cl)c1` [Compound 102, (Z)-3-chloro-4-((2,4-dioxothiazolidin-5-ylidene)methyl)phenyl 2-phenylacetate] registered an IC50 against 15-PGDH of 75.3 nM. In the assay with A549 cells, the Increment % was found to be 99.2022% and the PGE2 concentration stood at 222.4242 pg/mL.

On to `O=C(CCc1ccccc1)Oc1ccc(/C=C2\SC(=O)NC2=O)c(Cl)c1` [Compound 103, (Z)-3-chloro-4-((2,4-dioxothiazolidin-5-ylidene)methyl)phenyl 3-phenylpropanoate], for which the IC50 against 15-PGDH came out at 87.5 nM. In addition, in the assay with A549 cells, the Increment % amounted to 159.989% and the PGE2 concentration turned out to be 290.2972 pg/mL.

For `O=C(CCCc1ccccc1)Oc1ccc(/C=C2\SC(=O)NC2=O)c(Cl)c1` [Compound 104, (Z)-3-chloro-4-((2,4-dioxothiazolidin-5-ylidene)methyl)phenyl 4-phenylbutanoate], the IC50 at 15-PGDH was 74.9 nM. Besides, in the assay on A549 cells, the Increment % was found to be 213.4577% and the PGE2 concentration is 349.9990 pg/mL.

Consider `O=C(CCCCc1ccccc1)Oc1ccc(/C=C2\SC(=O)NC2=O)c(Cl)c1` [Compound 105, (Z)-3-chloro-4-((2,4-dioxothiazolidin-5-ylidene)methyl)phenyl 5-phenylpentanoate], for which the IC50 against 15-PGDH was determined as 130 nM. In the assay on A549 cells, the Increment % is 89.4598% and the PGE2 concentration was 211.5461 pg/mL.
